Measurements as given in the NIST ThermoML archive (doi:10.1021/je400122k).
Numbers after ± are expanded uncertainties.

Conditions: Liquid; for speed of sound: Pulse-echo method; for mass density: Vibrating tube method

SMILES: CCCCCCCCCCCCCCCC(=O)OC [methyl hexadecanoate]
- speed of sound (313.15 K, 100 kPa): 1317.2 ± 5.4 m/s
- mass density (313.15 K, 101.3 kPa): 849.9 ± 1 kg/m3
- speed of sound (313.15 K, 10000 kPa): 1365.4 ± 5.6 m/s
- mass density (313.15 K, 10000 kPa): 856.3 ± 1 kg/m3
- speed of sound (313.15 K, 20000 kPa): 1411.5 ± 5.8 m/s
- mass density (313.15 K, 20000 kPa): 861.8 ± 1.1 kg/m3
- speed of sound (313.15 K, 30000 kPa): 1454.4 ± 6 m/s
- mass density (313.15 K, 30000 kPa): 867.9 ± 1.1 kg/m3
- speed of sound (313.15 K, 40000 kPa): 1494.8 ± 6.1 m/s
- mass density (313.15 K, 40000 kPa): 872.1 ± 1.1 kg/m3
- mass density (313.15 K, 50000 kPa): 878.4 ± 1.1 kg/m3
- speed of sound (323.15 K, 100 kPa): 1283.4 ± 5.3 m/s
- mass density (323.15 K, 101.3 kPa): 842.5 ± 1 kg/m3
- speed of sound (323.15 K, 10000 kPa): 1333.7 ± 5.5 m/s
- mass density (323.15 K, 10000 kPa): 849 ± 1 kg/m3
- speed of sound (323.15 K, 20000 kPa): 1381.1 ± 5.7 m/s
- mass density (323.15 K, 20000 kPa): 855.5 ± 1.1 kg/m3
- speed of sound (323.15 K, 30000 kPa): 1425.2 ± 5.9 m/s
- mass density (323.15 K, 30000 kPa): 861.4 ± 1.1 kg/m3
- speed of sound (323.15 K, 40000 kPa): 1467.4 ± 6 m/s
- mass density (323.15 K, 40000 kPa): 866.8 ± 1.1 kg/m3
- speed of sound (323.15 K, 50000 kPa): 1506.9 ± 6.2 m/s
- mass density (323.15 K, 50000 kPa): 871.8 ± 1.1 kg/m3
- mass density (333.15 K, 101.3 kPa): 835.2 ± 1 kg/m3
- mass density (333.15 K, 10000 kPa): 842 ± 1 kg/m3
- mass density (333.15 K, 20000 kPa): 848.7 ± 1.1 kg/m3
- mass density (333.15 K, 30000 kPa): 854.9 ± 1.1 kg/m3
- mass density (333.15 K, 40000 kPa): 860.4 ± 1.1 kg/m3
- mass density (333.15 K, 50000 kPa): 866.7 ± 1.1 kg/m3
- speed of sound (343.15 K, 100 kPa): 1215.3 ± 5 m/s
- mass density (343.15 K, 101.3 kPa): 827.8 ± 1 kg/m3
- speed of sound (343.15 K, 10000 kPa): 1270.1 ± 5.3 m/s
- mass density (343.15 K, 10000 kPa): 835.1 ± 1 kg/m3
- speed of sound (343.15 K, 20000 kPa): 1319.7 ± 5.4 m/s
- mass density (343.15 K, 20000 kPa): 842 ± 1.1 kg/m3
- speed of sound (343.15 K, 30000 kPa): 1366.8 ± 5.6 m/s
- mass density (343.15 K, 30000 kPa): 848.5 ± 1.1 kg/m3
- speed of sound (343.15 K, 40000 kPa): 1410.5 ± 5.8 m/s
- mass density (343.15 K, 40000 kPa): 854.4 ± 1.1 kg/m3
- speed of sound (343.15 K, 50000 kPa): 1450.6 ± 5.9 m/s
- mass density (343.15 K, 50000 kPa): 859.6 ± 1.1 kg/m3
- mass density (353.15 K, 101.3 kPa): 820.4 ± 1 kg/m3
- mass density (353.15 K, 10000 kPa): 827.7 ± 1 kg/m3
- mass density (353.15 K, 20000 kPa): 835.1 ± 1.1 kg/m3
- mass density (353.15 K, 30000 kPa): 841.7 ± 1.1 kg/m3
- mass density (353.15 K, 40000 kPa): 847.9 ± 1.1 kg/m3
- mass density (353.15 K, 50000 kPa): 853.8 ± 1.1 kg/m3
- speed of sound (363.15 K, 100 kPa): 1150.1 ± 4.8 m/s
- mass density (363.15 K, 101.3 kPa): 812.8 ± 1 kg/m3
- speed of sound (363.15 K, 10000 kPa): 1208.9 ± 5 m/s
- mass density (363.15 K, 10000 kPa): 820.3 ± 1 kg/m3
- speed of sound (363.15 K, 20000 kPa): 1262.5 ± 5.2 m/s
- mass density (363.15 K, 20000 kPa): 828 ± 1.1 kg/m3
- speed of sound (363.15 K, 30000 kPa): 1311.1 ± 5.4 m/s
- mass density (363.15 K, 30000 kPa): 835 ± 1.1 kg/m3
- speed of sound (363.15 K, 40000 kPa): 1355.7 ± 5.6 m/s
- mass density (363.15 K, 40000 kPa): 843.8 ± 1.1 kg/m3
- speed of sound (363.15 K, 50000 kPa): 1400.9 ± 5.7 m/s
- mass density (363.15 K, 50000 kPa): 848.6 ± 1.1 kg/m3
- mass density (373.15 K, 101.3 kPa): 804.6 ± 1 kg/m3
- mass density (373.15 K, 10000 kPa): 813.8 ± 1 kg/m3
- mass density (373.15 K, 20000 kPa): 821.7 ± 1.1 kg/m3
- mass density (373.15 K, 30000 kPa): 829 ± 1.1 kg/m3
- mass density (373.15 K, 40000 kPa): 835.7 ± 1.1 kg/m3
- mass density (373.15 K, 50000 kPa): 841.9 ± 1.1 kg/m3
- speed of sound (383.15 K, 100 kPa): 1087.2 ± 4.5 m/s
- mass density (383.15 K, 101.3 kPa): 797.4 ± 1 kg/m3
- speed of sound (383.15 K, 10000 kPa): 1150.3 ± 4.8 m/s
- mass density (383.15 K, 10000 kPa): 806.8 ± 1.1 kg/m3
- speed of sound (383.15 K, 20000 kPa): 1207.5 ± 5 m/s
- mass density (383.15 K, 20000 kPa): 815.1 ± 1.1 kg/m3
- speed of sound (383.15 K, 30000 kPa): 1259.3 ± 5.2 m/s
- mass density (383.15 K, 30000 kPa): 822.7 ± 1.1 kg/m3
- speed of sound (383.15 K, 40000 kPa): 1310.8 ± 5.4 m/s
- mass density (383.15 K, 40000 kPa): 829.6 ± 1.1 kg/m3
- speed of sound (383.15 K, 50000 kPa): 1358.3 ± 5.6 m/s
- mass density (383.15 K, 50000 kPa): 836.5 ± 1.1 kg/m3
- speed of sound (393.15 K, 100 kPa): 1056.9 ± 4.4 m/s
- speed of sound (393.15 K, 10000 kPa): 1121.2 ± 4.7 m/s
- speed of sound (393.15 K, 20000 kPa): 1180.4 ± 4.9 m/s
- speed of sound (393.15 K, 30000 kPa): 1234.2 ± 5.1 m/s
- speed of sound (393.15 K, 40000 kPa): 1284.7 ± 5.3 m/s
- speed of sound (393.15 K, 50000 kPa): 1334 ± 5.5 m/s
